Read-outs that look alike come from different tables or passages of the source. Values belong to the molecule of their own block, whether it stands above or below them. Peptide text beside a SMILES is read from it. * marks the point of attachment. Cbz = O=C(OCc1ccccc1)*
Experiments:
[1] = cited from earlier work
[2] = target: T1, β5 active site of the human 20S proteasome (Homo sapiens, UniProt P28074); assay: Proteasome kinetic assay (β5 chymotrypsin-like active site); assay type: biochemical; details: substrate Suc-LLVY-AMC 100 µM
T1 construct: purchased Boston Biochem
Experimental: Human 20S proteasome, 700 KDa, was purchased from Boston Biochem (50 µg, 2 µM (1.4 mg/mL)) in 50 mM HEPES buffer (pH 7.6, 100 mM NaCl, 1 mM DTT). Assay buffer was prepared as follows: 20 mM HEPES buffer pH 7.8, 0.5 mM EDTA, 0.037% SDS. Proteasome specific substrate Suc-LLVY-AMC was purchased from Boston Biochem and used as a fluorogenic substrate; λex = 380 nm, λem = 442 nm. 18 µL of 2 µM proteasome solution was diluted with 425 µL H2O to make a 0.06 µM stock enzyme solution for kinetic assays. In a 96-well plate suitable for fluorometric assays was added 86 µL assay buffer, 2 µL inhibitor, 2 µL enzyme substrate, and 10 µL enzyme stock solution ([…] enzyme concentration in well). Fluorescence at 442 nM was monitored for 10 min. […] IC50 values were obtained from non-linear fitting of the data to a competitive inhibition model using GraphPad Prism 7.0 software. The proteasome β5 chymotrypsin-like active site activity assay was performed as previously described.

[3] = target: T2, human caspase-3 (Homo sapiens, UniProt P42574); assay: Caspase-3 kinetic assay; assay type: biochemical; details: substrate Ac-DEVD-AMC 0.1 mM, 37 °C
T2 construct: gift, Prof; Guy Salvesen's laboratory
T2 sequence (P42574 29-175 limits assumed): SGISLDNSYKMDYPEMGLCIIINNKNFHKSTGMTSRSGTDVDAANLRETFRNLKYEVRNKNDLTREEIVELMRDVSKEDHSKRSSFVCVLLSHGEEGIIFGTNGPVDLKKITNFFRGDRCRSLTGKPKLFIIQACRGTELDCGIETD
T2 sequence (P42574 176-277 limits assumed): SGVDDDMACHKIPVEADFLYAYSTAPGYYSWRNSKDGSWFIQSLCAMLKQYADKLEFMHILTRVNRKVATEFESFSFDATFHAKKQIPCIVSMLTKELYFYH
Experimental: (§1) Caspase-3 and caspase-6 were generous gifts from Prof. Guy Salvesen’s laboratory and then used at Ohio State University. Caspase activities were measured in 100 mM HEPES, 10% sucrose, 0.1% CHAPS, 10 mM DTT, pH 7.5 at 37 °C. To 5,000 µL of this buffer, 100 µL of freshly prepared 1 M DTT and 4,900 µL DI H2O were added resulting in the caspase assay buffer. Studies were performed at 37 °C.
Caspase-3 specific substrate Ac-DEVD-AMC was purchased from Cayman Chemical Company and used as fluorogenic substrate; λex = 353 nm, λem = 442 nm. 2 µL of 33 µM caspase-3 solution was diluted with 4998 µL caspase assay buffer to make a 13.2 nM enzyme stock solution. In a 96-well plate suitable for fluorometric assays, 80 µL assay buffer, 5 µL inhibitor, 5 µL enzyme substrate (0.1 mM), and 10 µL enzyme stock solution were added. Fluorescence at 442 nM was monitored for 10 min. The enzyme activity was measured in triplicate at varying concentrations of inhibitor (0, 25, 50, 100 µM in DMSO) and substrate (0.1 mM in DMSO) by converting the slope of the plot of fluorescence intensity at 442 nm vs time for the time points between 4 and 8 min using Beer-Lambert’s law. IC50 values were obtained from non-linear fitting of the data to a competitive inhibition model using GraphPad Prism 7.0 software.

[4] = target: T3, human caspase-6 (Homo sapiens, UniProt P55212); assay: Caspase-6 kinetic assay; assay type: biochemical; details: for IC50: substrate Ac-VEID-AFC 0.1 mM, 37 °C
T3 construct: gift, Prof; Guy Salvesen's laboratory
T3 sequence (P55212 24-179 limits assumed): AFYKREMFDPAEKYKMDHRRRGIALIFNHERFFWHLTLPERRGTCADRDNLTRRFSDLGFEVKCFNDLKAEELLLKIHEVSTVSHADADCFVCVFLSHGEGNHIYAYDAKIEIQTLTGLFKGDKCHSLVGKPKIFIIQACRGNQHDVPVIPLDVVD
T3 sequence (P55212 194-293 limits assumed): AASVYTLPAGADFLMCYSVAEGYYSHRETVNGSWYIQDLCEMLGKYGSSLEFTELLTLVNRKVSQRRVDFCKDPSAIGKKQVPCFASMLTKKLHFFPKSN
Experimental: as §1
Caspase-6 specific substrate Ac-VEID-AFC was purchased from ChemCruz and used as a fluorogenic substrate; λex = 400 nm, λem = 505 nm. To 45 µL of assay buffer, 5 µL of the 19.7 µM enzyme was added. This resulting enzyme solution was further diluted 1:5 with assay buffer resulting in a 0.32 µM solution. In a 96-well plate suitable for fluorometric assays was added 80 µL assay buffer, 5 µL inhibitor, 5 µL enzyme substrate (0.1 mM), and 10 µL enzyme stock solution (32 nM enzyme concentration in well). The enzyme activity was measured in triplicate at varying concentrations of inhibitor (0, 25, 50, 100 µM in DMSO) and substrate (0.1 mM in DMSO) by converting the slope of the plot of fluorescence intensity at 442 nm vs time for the time points between 4 and 8 min using Lambert-Beer’s law. IC50 values were obtained from non-linear fitting of the data to a competitive inhibition model using GraphPad Prism 7.0 software.

[5] = target: I. ricinus legumain (Ixodes ricinus, UniProt Q6PRC7); assay: Legumain kinetic assay (I. ricinus); assay type: biochemical
Experimental: (§2) Schistosoma mansoni and Ixodes ricinus legumain zymogens were expressed in the yeast, Pichia pastoris, as described[36]^,[42]. Legumain kinetic assay details: zymogens were activated for 3 h (Ir) or overnight (Sm) at room temperature in 0.1 M Na-Ac pH 4.0; 5 mM DTT. Activities were measured in 0.1 M Na-Ac pH 5.5; 2.5 mM DTT, 0.1% PEG 6000 buffer. The substrate used was Cbz-AAN-AMC with 50 µM final concentration in the assay. Inhibitors were prepared in DMSO (1% DMSO in activity assay). Measurements were taken with an incubation period of 10 min at room temperature, and the enzyme activity was measured in triplicate. Asparaginyl Endopeptidase (AE) activity assay was performed as previously described.

[6] = target: S. mansoni legumain (Schistosoma mansoni, UniProt P09841); assay: Legumain kinetic assay (S. mansoni); assay type: biochemical; details: for IC50: substrate Cbz-AAN-AMC 50 µM, pH 5.5
Experimental: as §2

[7] = target: proteasome; details: substrate Suc-LLVY-AMC, cited from earlier work; for Ki: read-out: previously reported Ki
[8] = target: calpains and various lysosomal cathepsins; parameters: method as in PMID 8087844; details: cited from earlier work
[9] = at the highest concentration tested (100 µM)

S. mansoni legumain, sequence (P09841 32-291): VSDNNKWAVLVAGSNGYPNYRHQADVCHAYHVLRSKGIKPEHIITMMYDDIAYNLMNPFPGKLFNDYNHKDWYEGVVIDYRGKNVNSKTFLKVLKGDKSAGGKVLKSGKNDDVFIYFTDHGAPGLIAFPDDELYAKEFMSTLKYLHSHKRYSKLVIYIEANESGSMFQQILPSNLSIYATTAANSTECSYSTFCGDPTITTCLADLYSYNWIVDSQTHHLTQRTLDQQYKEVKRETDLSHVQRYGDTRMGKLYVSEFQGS

SMILES: CC(C)C[C@H](NC(=O)[C@H](CCc1ccccc1)NC(=O)CN1CCOCC1)C(=O)N[C@@H](Cc1ccccc1)C(=O)N[C@@H](CC(C)C)C(=O)[C@@]1(C)CO1 [Carfilzomib, carfilzomib]
adverse cardiovascular effects, share of patients ([1]; treated patients): up to 30%

IC50 [2]: 9.02 ± 1.82 µM
SMILES: CC(C)C[C@H](NC(=O)OCc1ccccc1)C(=O)N[C@@H](CC(C)C)C(=O)NN(CC(C)C)C(=O)C=O [Compound 3, Benzyl ((S)-1-(((S)-1–(2-isobutyl-2–(2-oxoacetyl)hydrazinyl)-4-methyl-1-oxopentan-2-yl)amino)-4-methyl-1-oxopentan-2-yl)carbamate]

IC50 [2]: 14.6 ± 2.39 µM
SMILES: CC(=O)C(=O)N(CC(C)C)NC(=O)[C@H](CC(C)C)NC(=O)[C@H](CC(C)C)NC(=O)OCc1ccccc1 [Compound 4, Benzyl ((S)-1-(((S)-1–(2-isobutyl-2–(2-oxopropanoyl)hydrazinyl)-4-methyl-1-oxopentan-2-yl)amino)-4-methyl-1-oxopentan-2-yl)carbamate]

IC50 [2]: 10.1 ± 4.49 µM
SMILES: CC(C)C[C@H](NC(=O)OCc1ccccc1)C(=O)N[C@@H](CC(C)C)C(=O)NN(CC(C)C)C(=O)C(=O)Cc1ccccc1 [Compound 5, Benzyl ((S)-1-(((S)-1–(2-isobutyl-2–(2-oxo-3-phenylpropanoyl)hydrazinyl)-4-methyl-1-oxopentan-2-yl)amino)-4-methyl-1-oxopentan-2-yl)carbamate]

IC50 [3]: 7.74 ± 1.88 µM
IC50 [4]: 51.9 ± 10.6 µM
SMILES: CC(=O)C(=O)N(CC(=O)O)NC(=O)[C@@H](NC(=O)[C@H](CCC(=O)O)NC(=O)[C@H](CC(=O)O)NC(=O)OCc1ccccc1)C(C)C [Compound 6, (5S,8S,11S)-8–(2-Carboxyethyl)-5-(carboxymethyl)-11-isopropyl-3,6,9,12-tetraoxo-14–(2-oxopropanoyl)-1-phenyl-2-oxa-4,7,10,13,14-pentaazahexadecan-16-oic acid]

IC50 [3]: 13.4 ± 4.61 µM
IC50 [4]: 64.2 ± 45.4 µM
SMILES: CC(C)[C@H](NC(=O)[C@H](CCC(=O)O)NC(=O)[C@H](CC(=O)O)NC(=O)OCc1ccccc1)C(=O)NN(CC(=O)O)C(=O)C(=O)Cc1ccccc1 [Compound 7, (5S,8S,11S)-8–(2-Carboxyethyl)-5-(carboxymethyl)-11-isopropyl-3,6,9,12-tetraoxo-14–(2-oxo-3-phenylpropanoyl)-1-phenyl-2-oxa-4,7,10,13,14-pentaazahexadecan-16-oic acid]

IC50 [3]: 122 ± 83.3 µM
inhibits caspase-6 more effectively than caspase-3 ([4]; ratio of IC50 caspase-3 / caspase-6): 13 times
IC50 [4]: 9.08 ± 3.02 µM
SMILES: CC[C@@H](C)[C@H](NC(=O)OCc1ccccc1)C(=O)N[C@@H](CCC(=O)O)C(=O)N[C@H](C(=O)NN(CC(=O)O)C(=O)C(C)=O)[C@H](C)O [Compound 8, (5S,8S,11S)-5-((R)-s-butyl)-8–(2-carboxyethyl)-11-((S)-1-hydroxyethyl)-3,6,9,12-tetraoxo-14–(2-oxopropanoyl)-1-phenyl-2-oxa-4,7,10,13,14-pentaazahexadecan-16-oic acid]

SMILES: CC(=O)C(=O)N(CC(N)=O)NC(=O)[C@H](C)NC(=O)[C@H](C)NC(=O)OCc1ccccc1 [Compound 10, Benzyl ((S)-1-(((S)-1–(2–(2-amino-2-oxoethyl)-2-(2-oxopropanoyl)hydrazinyl)-1-oxopropan-2-yl)amino)-1-oxopropan-2-yl)carbamate]
inhibition of I. ricinus legumain [5, 9]: did not show inhibition
IC50 ([5]; substrate Cbz-AAN-AMC 50 µM, pH 5.5, read-out: IC50 I. ricinus): > 100 µM
inhibition of S. mansoni legumain [6, 9]: did not show inhibition
IC50 [6]: > 100 µM

SMILES: C[C@H](NC(=O)OCc1ccccc1)C(=O)N[C@@H](C)C(=O)NN(CC(N)=O)C(=O)C(=O)Cc1ccccc1 [Compound 11, Benzyl ((S)-1-(((S)-1–(2–(2-amino-2-oxoethyl)-2-(2-oxo-3-phenylpropanoyl)hydrazinyl)-1-oxopropan-2-yl)amino)-1-oxopropan-2-yl)carbamate]
IC50 [5]: 17.8 ± 11.2 µM
IC50 [6]: 22.2 ± 4.21 µM

SMILES: CCC[C@@H](C=O)NC(=O)[C@H](CC(C)C)NC(=O)[C@H](CC(C)C)NC(=O)OCc1ccccc1 [MG115, Cbz-Leu-Leu-Nle-CHO]
Ki [7]: 0.021 µM

SMILES: CC(C)C[C@@H](C=O)NC(=O)[C@H](CC(C)C)NC(=O)[C@H](CC(C)C)NC(=O)OCc1ccccc1 [MG132, Cbz-Leu-Leu-Leu-CHO] (Cbz-Leu-Leu-Leu-aldehyde)
Ki [8]: 0.005 to 0.012 µM
previously reported Ki [7]: few nanomolar
Ki [7]: 0.002 to 0.004 µM

SMILES: CC(C)C[C@H](NC(=O)[C@H](Cc1ccccc1)NC(=O)c1cnccn1)B(O)O [bortezomib]
peripheral neuropathy, share of patients ([1]; newly diagnosed multiple myeloma patients): up to 64%
